Measurements: patent US8802597B2, “Herbicidal pyrimidines” (E I du Pont de Nemours and Company, priority 2003, dated 2014)
Read-outs that look alike come from different tables or passages of the source.

How the values were obtained:
Experiment in all cases: Test A pre/postemergence
Type in all cases: in vivo
[1] = system: morningglory (Ipomoea spp.); conditions: for pest or weed control at 125 g/ha / pest or weed control at 500 g/ha: Ipomoea, 240 h, read-out: Plant response rating, Morningglory
Outline: (§1)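 Seeds sown in loam–sand blend received a preemergence directed soil spray of test chemical in non-phytotoxic solvent with surfactant; same-formulation postemergence spray given concurrently to plants 2–10 cm tall at 1- to 2-leaf stage. Greenhouse ~ten days, then visual injury rating versus untreated controls, 0 (no effect) to 100 (complete control).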

[2] = system: velvetleaf (Abutilon theophrasti); conditions: for pest or weed control at 125 g/ha / pest or weed control at 500 g/ha: Abutilon theophrasti, 240 h, read-out: Plant response rating, Velvetleaf
Outline: as §1

[3] = system: crabgrass (Digitaria sanguinalis); conditions: for pest or weed control at 125 g/ha / pest or weed control at 500 g/ha: Digitaria sanguinalis, 240 h, read-out: Plant response rating, Crabgrass
Outline: as §1

[4] = system: barnyardgrass (Echinochloa crus-galli); conditions: for pest or weed control at 125 g/ha / pest or weed control at 500 g/ha: Echinochloa crus-galli, 240 h, read-out: Plant response rating, Barnyardgrass
Outline: as §1

[5] = system: redroot pigweed (Amaranthus retroflexus); conditions: for pest or weed control at 125 g/ha / pest or weed control at 500 g/ha: Amaranthus retroflexus, 240 h, read-out: Plant response rating, Pigweed
Outline: as §1

[6] = system: giant foxtail (Setaria faberi); conditions: for pest or weed control at 125 g/ha / pest or weed control at 500 g/ha: Setaria faberi, 240 h, read-out: Plant response rating, Foxtail, Giant
Outline: as §1

[7] = post-emergence, Postemergence, 125 g ai/ha, 0 to 100 scale (0 no effect, 100 complete control)
[8] = post-emergence, Postemergence, 500 g ai/ha, 0 to 100 scale (0 no effect, 100 complete control)
[9] = pre-emergence, Preemergence, 125 g ai/ha, 0 to 100 scale where 0 is no effect and 100 is complete control, approximately ten days
[10] = pre-emergence, Preemergence, 500 g ai/ha, 0 to 100 scale where 0 is no effect and 100 is complete control, approximately ten days
[11] = Postemergence, 125 g ai/ha, 0 to 100 scale (0 no effect, 100 complete control)
[12] = Postemergence, 500 g ai/ha, 0 to 100 scale (0 no effect, 100 complete control)
[13] = Preemergence, 125 g ai/ha, 0 to 100 scale where 0 is no effect and 100 is complete control, approximately ten days
[14] = Preemergence, 500 g ai/ha, 0 to 100 scale where 0 is no effect and 100 is complete control, approximately ten days

SMILES: CCOC(=O)c1nc(-c2ccc3ccccc3c2)nc(N)c1Cl [Compound 127]
- pest or weed control at 125 g/ha [1, 7]: 0%
- pest or weed control at 500 g/ha [1, 8]: 0%
- pest or weed control at 125 g/ha [1, 9]: 0%
- pest or weed control at 500 g/ha [1, 10]: 0%
- pest or weed control at 125 g/ha [2, 7]: 60%
- pest or weed control at 500 g/ha [2, 8]: 80%
- pest or weed control at 125 g/ha [2, 9]: 0%
- pest or weed control at 500 g/ha [2, 10]: 0%
- pest or weed control at 125 g/ha [3, 7]: 0%
- pest or weed control at 500 g/ha [3, 8]: 0%
- pest or weed control at 125 g/ha [3, 9]: 0%
- pest or weed control at 500 g/ha [3, 10]: 0%
- pest or weed control at 125 g/ha [4, 7]: 0%
- pest or weed control at 500 g/ha [4, 8]: 0%
- pest or weed control at 125 g/ha [4, 9]: 0%
- pest or weed control at 500 g/ha [4, 10]: 0%
- pest or weed control at 125 g/ha [5, 7]: 0%
- pest or weed control at 500 g/ha [5, 8]: 10%
- pest or weed control at 125 g/ha [5, 9]: 0%
- pest or weed control at 500 g/ha [5, 10]: 0%
- pest or weed control at 125 g/ha [6, 7]: 0%
- pest or weed control at 500 g/ha [6, 8]: 0%
- pest or weed control at 125 g/ha [6, 9]: 0%
- pest or weed control at 500 g/ha [6, 10]: 0%

SMILES: NC(=O)c1nc(-c2ccc(Br)cc2)nc(N)c1Br [Compound 130]
- Plant response rating, Morningglory [1, 11]: 0
- Plant response rating, Morningglory [1, 12]: 0
- Plant response rating, Morningglory [1, 13]: 0
- Plant response rating, Morningglory [1, 14]: 0
- Plant response rating, Velvetleaf [2, 11]: 0
- Plant response rating, Velvetleaf [2, 12]: 30
- Plant response rating, Velvetleaf [2, 13]: 0
- Plant response rating, Velvetleaf [2, 14]: 0
- Plant response rating, Crabgrass [3, 11]: 0
- Plant response rating, Crabgrass [3, 12]: 0
- Plant response rating, Crabgrass [3, 13]: 0
- Plant response rating, Crabgrass [3, 14]: 0
- Plant response rating, Barnyardgrass [4, 11]: 0
- Plant response rating, Barnyardgrass [4, 12]: 0
- Plant response rating, Barnyardgrass [4, 13]: 0
- Plant response rating, Barnyardgrass [4, 14]: 0
- Plant response rating, Pigweed [5, 11]: 0
- Plant response rating, Pigweed [5, 12]: 15
- Plant response rating, Pigweed [5, 13]: 0
- Plant response rating, Pigweed [5, 14]: 0
- Plant response rating, Foxtail, Giant [6, 11]: 0
- Plant response rating, Foxtail, Giant [6, 12]: 0
- Plant response rating, Foxtail, Giant [6, 13]: 0
- Plant response rating, Foxtail, Giant [6, 14]: 0

SMILES: CS(=O)(=O)NC(=O)c1nc(-c2ccc(Cl)cc2)nc(N)c1Cl [Compound 131]
- Plant response rating, Morningglory [1, 11]: 0
- Plant response rating, Morningglory [1, 12]: 20
- Plant response rating, Morningglory [1, 13]: 0
- Plant response rating, Morningglory [1, 14]: 0
- Plant response rating, Velvetleaf [2, 11]: 35
- Plant response rating, Velvetleaf [2, 12]: 60
- Plant response rating, Velvetleaf [2, 13]: 0
- Plant response rating, Velvetleaf [2, 14]: 0
- Plant response rating, Crabgrass [3, 11]: 10
- Plant response rating, Crabgrass [3, 12]: 30
- Plant response rating, Crabgrass [3, 13]: 0
- Plant response rating, Crabgrass [3, 14]: 0
- Plant response rating, Barnyardgrass [4, 11]: 10
- Plant response rating, Barnyardgrass [4, 12]: 20
- Plant response rating, Barnyardgrass [4, 13]: 0
- Plant response rating, Barnyardgrass [4, 14]: 0
- Plant response rating, Pigweed [5, 11]: 50
- Plant response rating, Pigweed [5, 12]: 70
- Plant response rating, Pigweed [5, 13]: 0
- Plant response rating, Pigweed [5, 14]: 0
- Plant response rating, Foxtail, Giant [6, 11]: 15
- Plant response rating, Foxtail, Giant [6, 12]: 30
- Plant response rating, Foxtail, Giant [6, 13]: 0
- Plant response rating, Foxtail, Giant [6, 14]: 0

SMILES: CS(=O)(=O)NC(=O)c1nc(C2CC2)nc(N)c1Cl [Compound 132]
- Plant response rating, Morningglory [1, 11]: 45
- Plant response rating, Morningglory [1, 12]: 50
- Plant response rating, Morningglory [1, 13]: 0
- Plant response rating, Morningglory [1, 14]: 0
- Plant response rating, Velvetleaf [2, 11]: 50
- Plant response rating, Velvetleaf [2, 12]: 60
- Plant response rating, Velvetleaf [2, 13]: 0
- Plant response rating, Velvetleaf [2, 14]: 5
- Plant response rating, Crabgrass [3, 11]: 5
- Plant response rating, Crabgrass [3, 12]: 10
- Plant response rating, Crabgrass [3, 13]: 0
- Plant response rating, Crabgrass [3, 14]: 0
- Plant response rating, Barnyardgrass [4, 11]: 0
- Plant response rating, Barnyardgrass [4, 12]: 10
- Plant response rating, Barnyardgrass [4, 13]: 0
- Plant response rating, Barnyardgrass [4, 14]: 0
- Plant response rating, Pigweed [5, 11]: 50
- Plant response rating, Pigweed [5, 12]: 65
- Plant response rating, Pigweed [5, 13]: 15
- Plant response rating, Pigweed [5, 14]: 65
- Plant response rating, Foxtail, Giant [6, 11]: 0
- Plant response rating, Foxtail, Giant [6, 12]: 5
- Plant response rating, Foxtail, Giant [6, 13]: 0
- Plant response rating, Foxtail, Giant [6, 14]: 0

SMILES: COC(OC)c1nc(-c2ccc(I)cc2)nc(N)c1Cl [Compound 134]
- Plant response rating, Morningglory [1, 11]: 0
- Plant response rating, Morningglory [1, 12]: 0
- Plant response rating, Morningglory [1, 13]: 0
- Plant response rating, Morningglory [1, 14]: 0
- Plant response rating, Velvetleaf [2, 11]: 50
- Plant response rating, Velvetleaf [2, 12]: 55
- Plant response rating, Velvetleaf [2, 13]: 0
- Plant response rating, Velvetleaf [2, 14]: 0
- Plant response rating, Crabgrass [3, 11]: 0
- Plant response rating, Crabgrass [3, 12]: 0
- Plant response rating, Crabgrass [3, 13]: 0
- Plant response rating, Crabgrass [3, 14]: 0
- Plant response rating, Barnyardgrass [4, 11]: 0
- Plant response rating, Barnyardgrass [4, 12]: 0
- Plant response rating, Barnyardgrass [4, 13]: 0
- Plant response rating, Barnyardgrass [4, 14]: 0
- Plant response rating, Pigweed [5, 11]: 15
- Plant response rating, Pigweed [5, 12]: 30
- Plant response rating, Pigweed [5, 13]: 0
- Plant response rating, Pigweed [5, 14]: 0
- Plant response rating, Foxtail, Giant [6, 11]: 0
- Plant response rating, Foxtail, Giant [6, 12]: 0
- Plant response rating, Foxtail, Giant [6, 13]: 0
- Plant response rating, Foxtail, Giant [6, 14]: 0

SMILES: CCOC(=O)c1nc(-c2ccc(Cl)cc2)nc(N)c1I [Compound 137]
- Plant response rating, Morningglory [1, 11]: 5
- Plant response rating, Morningglory [1, 12]: 30
- Plant response rating, Morningglory [1, 13]: 0
- Plant response rating, Morningglory [1, 14]: 0
- Plant response rating, Velvetleaf [2, 11]: 45
- Plant response rating, Velvetleaf [2, 12]: 60
- Plant response rating, Velvetleaf [2, 13]: 0
- Plant response rating, Velvetleaf [2, 14]: 0
- Plant response rating, Crabgrass [3, 11]: 0
- Plant response rating, Crabgrass [3, 12]: 0
- Plant response rating, Crabgrass [3, 13]: 0
- Plant response rating, Crabgrass [3, 14]: 0
- Plant response rating, Barnyardgrass [4, 11]: 0
- Plant response rating, Barnyardgrass [4, 12]: 0
- Plant response rating, Barnyardgrass [4, 13]: 0
- Plant response rating, Barnyardgrass [4, 14]: 0
- Plant response rating, Pigweed [5, 11]: 25
- Plant response rating, Pigweed [5, 12]: 45
- Plant response rating, Pigweed [5, 13]: 0
- Plant response rating, Pigweed [5, 14]: 0
- Plant response rating, Foxtail, Giant [6, 11]: 0
- Plant response rating, Foxtail, Giant [6, 12]: 0
- Plant response rating, Foxtail, Giant [6, 13]: 0
- Plant response rating, Foxtail, Giant [6, 14]: 0
